Assay results taken from PubChem BioAssay AID1918938 (Molecular Pharmacology Branch, DTP, NCI, 2023).
Where “and” joins values, the source holds several entries; their conditions need not be identical. Equal values may be shown once.

Tested on: 556581-035-R-J1-PDC complex spheroid viability
Experiment: Anticancer human tumor 556581-035-R-J1-PDC patient-derived ovarian carcinoma cell line growth inhibition
Details: for viability, T/C: stronger effect = lower value; for IC50: curve of compound
Source text: Multicellular complex tumor spheroid response to LSD1 Inhibitor Iadademstat in combination with a variety of drugs and investigational agents in selected tumor cell lines
The current study was undertaken to assess response to LSD1 inhibitors in combination with standard-of-care drugs and investigational agents in solid tumor complex spheroid models as well as in the K-562 leukemia. Complex spheroids include a stromal component modeled by human endothelial cells (HUVEC) and fibroblasts modeled by human mesenchymal stem cells (MSCs). The concentration ranges selected for each drug and investigational agent were based upon clinically achievable concentrations if the clinical Cmax of the agent was known.
Compounds. The drugs and investigational agents used in this study are listed on Table 1. All of the agents used, including staurosporine (NSC755774) and gemcitabine (NSC613327), were obtained from the Developmental Therapeutics Program, NCI. FDA-approved anticancer drugs are available from the NCI at http://dtp.nci.nih.gov/branches/dscb/oncology_drugset_explanation.html. Drugs and investigational agents were >95% pure by proton nuclear magnetic resonance (NMR) and liquid chromatography/mass spectrometry (LC/MS). Stock solutions were prepared at 400x in DMSO, stored at -70 degrees C, and diluted in fresh medium prior to their use. The final concentration of DMSO in cell culture wells never exceeded 0.25% (v/v). The FDA-approved anticancer drug set is available from the Developmental Therapeutics Program at https://dtp.cancer.gov/organization/dscb/obtaining/available_plates.htm. All drugs and investigational agents were tested over a range starting from a high concentration at or near the clinical Cmax and decreasing in half-log increments. If the clinical Cmax for an agent had not been determined, the highest concentration tested was 10 microM.
Cell Lines. The patient-derived cancer cell (PDC) lines: 292921-168-R-J2-PDC, K24384-001-R-PDC, and 521955-158-R2-J5-PDC pancreatic carcinomas, 556581-035-R-J1 ovarian carcinoma, 324938-238-R-J1-PDC, 855422-203-R-J1-PDC and 883617-216-R-J1-PDC urothelial bladder carcinomas, 743489-274-T-PDC renal cell carcinoma, 138582-R-J1 Merkel cell tumor, K60290-347-R-J1 and K57222-313-R-J1-PDC glioblastomas, 653999-131-R-J2-PDC, LG0703-F948-PDC, and 349418-098-R-PDC non-small cell lung carcinomas, 885512-296-R-J2-PDC, 171881-019-R-J1-PDC breast carcinomas and 186277-243-T-J2-PDC and 233499-124-R-J2-PDC colon carcinomas were obtained from the NCI Patient-Derived Models Repository (PDMR, https://pdmr.cancer.gov). The established cell lines NCI/ADR-RES (RRID:CVCL_14520 and OVCAR-5 (RRID:CVCL_1628) ovarian carcinomas, 786-O (RRID:CVCL_1051) and A498 (RRID:CVCL_A498) renal cell carcinoma, NCI-H211 (ATCC, cat. CRL-5824; RRID:CVCL_1529), NCI-H196 (ATCC, cat. CRL-5823, RRID:CVCL_1509), SW 1271 (ATCC, cat. CRL-2177, RRID:CVCL_1716) and NCI-H1876 (ATCC, cat. CRL-5902, RRID:CVCL_1503) small cell lung carcinomas, MDA-MB-231 (RRID:CVCL_0062) and MDA-MB-468 (RRID:CVCL_0419)breast carcinomas (10-12). Pooled donor human umbilical vein endothelial cells (HUVEC, Lonza, cat. CC-2519) and human mesenchymal stem cells (hMSC, Lonza, cat. PT-2501) were purchased from Lonza (Walkersville, MD).
Cell Culture. All cells were maintained in an incubator at 37 degrees C and 5% CO2 with 95% humidity. The PDC lines were cultured according to standard operating procedures established by the NCI PDMR (https://pdmr.cancer.gov). Briefly all PDCs were thawed and cultured in Matrigel-coated flasks prepared with a working solution of 1X Ham's F-12 nutrient mix, without supplementation (Invitrogen, Waltham, MA, cat. 11765054), 100 U/mL penicillin-streptomycin (Invitrogen, cat. 15140122), and 2.5% Matrigel (Corning Inc., Corning, NY, cat. 354248) for the first three passages. […]
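Also: spheroids exposed to agents for seven days.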
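For viability, T/C in this document: 100% = DMSO vehicle control wells.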

| SMILES | viability, T/C (compound 0.000316 µM) | viability, T/C (compound 0.001 µM) | viability, T/C (compound 0.00316 µM) | viability, T/C (compound 0.01 µM) | viability, T/C (compound 0.0316 µM) | viability, T/C (compound 0.1 µM) | IC50 | viability, T/C (compound 0.316 µM) | viability, T/C (compound 1 µM) | viability, T/C (compound 3.16 µM) | viability, T/C (compound 10 µM) | viability, T/C (compound 0.00949 µM) | viability, T/C (compound 0.03 µM) | viability, T/C (compound 0.0949 µM) | viability, T/C (compound 0.3 µM) | viability, T/C (compound 0.949 µM) | viability, T/C (compound 3 µM) | viability, T/C (compound 0.000949 µM) | viability, T/C (compound 0.003 µM) |
| --- | --- | --- | --- | --- | --- | --- | --- | --- | --- | --- | --- | --- | --- | --- | --- | --- | --- | --- | --- |
| CC(C)CC(NC(=O)C(Cc1ccccc1)NC(=O)c1cnccn1)B(O)O (stereo unspecified) | 7.73% and 2.05% | 0.26% and 0.43% | 1.04% and 0.46% | 0.22% and 0.28% | 0.85% and 0.24% | 0.44% and 0.39% | < 0.316 nM |  |  |  |  |  |  |  |  |  |  |  |  |
| CC(C)CC(NC(=O)CNC(=O)c1cc(Cl)ccc1Cl)B1OC(=O)CC(CC(=O)O)(C(=O)O)O1 (stereo unspecified) | 99.8% and 102% | 98.2% and 102% | 63.3% and 46% | 2.06% and 2.7% | 0.74% and 1.23% | 0.66% and 0.61% | 4.06 nM and 2.91 nM |  |  |  |  |  |  |  |  |  |  |  |  |
| CC(C)c1c(-c2ccccc2)nc2c(C#N)c[nH]n2c1=O |  |  |  |  | 93.8% and 102% | 105% and 100% | > 10000 nM | 107% | 91.4% and 101% | 75.4% and 90.9% | 72.7% and 71.9% |  |  |  |  |  |  |  |  |
| CC1(C)CCC(CN2CCN(c3ccc(C(=O)NS(=O)(=O)c4ccc(NCC5CCOCC5)c([N+](=O)[O-])c4)c(Oc4cnc5[nH]ccc5c4)c3)CC2)=C(c2ccc(Cl)cc2)C1 |  |  |  |  | 97.5% and 84.5% | 95.1% and 89.4% | 4470 nM and 5040 nM | 85.2% and 79.3% | 81% and 90.1% | 68.8% and 79.1% | 13.5% and 7.08% |  |  |  |  |  |  |  |  |
| CC1COCCN1c1cc(-c2ccnn2C)c2ccnc(-c3ccn[nH]3)c2n1 (stereo unspecified) |  |  | 70% and 55.8% | 65.8% and 55.1% | 51.8% and 34.4% | 42.8% and 25.6% | 52.9 nM and 8.58 nM | 36.3% and 26.9% | 14.7% and 9.75% |  |  |  |  |  |  |  |  |  |  |
| CC1COCCN1c1cc(C2(S(C)(=N)=O)CC2)nc(-c2ccnc3[nH]ccc23)n1 (stereo unspecified) |  |  |  |  | 107% | 110% and 94.2% | > 10000 nM | 95.2% and 97.8% | 79.8% and 74.4% | 68.2% and 69.1% | 62.3% and 52.5% |  |  |  |  |  |  |  |  |
| CCN(c1cc(-c2ccc(CN3CCOCC3)cc2)cc(C(=O)NCc2c(C)cc(C)[nH]c2=O)c1C)C1CCOCC1 |  |  |  |  |  |  | 2010 nM and 895 nM |  |  |  |  | 101% and 102% | 105% and 88.1% | 87.8% and 88.1% | 81.4% and 79.2% | 60.2% and 46.9% | 44.3% and 24.2% |  |  |
| CC[C@@]1(O)C(=O)OCc2c1cc1n(c2=O)Cc2cc3c(CN(C)C)c(O)ccc3nc2-1 | 95.5% and 101% | 96.8% and 101% | 78.7% and 73.8% | 57.1% and 32.2% | 35.8% and 14% | 10% and 7.12% | 15.2 nM and 6.17 nM |  |  |  |  |  |  |  |  |  |  |  |  |
| CCc1c2c(nc3ccc(O)cc13)-c1cc3c(c(=O)n1C2)COC(=O)[C@]3(O)CC |  |  |  |  |  |  | < 0.949 nM |  |  |  |  | 2.19% and 1.59% | 0.61% and 0.44% | 0.29% and 0.42% | 0.34% and 0.39% |  |  | 17.5% and 12% | 11.2% and 9.45% |
| COc1cc(C2c3cc4c(cc3C(OC3OC5COC(C)OC5C(O)C3O)C3COC(=O)C23)OCO4)cc(OC)c1O (stereo unspecified) |  |  |  |  |  |  | 620 nM and 176 nM |  |  |  |  | 89% and 94.3% | 82.8% and 76.5% | 70% and 56.9% | 65.7% and 40.6% | 41.2% and 33.2% | 23.5% and 15.7% |  |  |
| COc1cc(Nc2ncc3c(n2)-c2ccc(Cl)cc2C(c2c(F)cccc2OC)=NC3)ccc1C(=O)O |  |  | 68.5% and 68.6% | 67.9% and 49.6% | 78.5% and 43.2% | 60.9% and 45.6% |  | 51.1% and 41.2% | 39.2% and 29.9% |  |  |  |  |  |  |  |  |  |  |
